US10327423B2, “Antimicrobial compounds and compositions, and uses thereof” (Akeso Biomedical, Inc., priority 2014, dated 2019)

Tests used:
[1] = Growth performance of broilers challenged with Campylobacter dirty litter at day 20; assay type: in vivo, chicken (Ross 308 male broilers); conditions: treatment groups 3, 5, 6, 7 (FeQ) and 8 (FeTyr)
Method: A study was performed to evaluate growth promotion and reduction of Campylobacter carriage using FeQ and FeTyr in Ross 308 male broilers with 7 treatment groups. Each treatment group comprised four replicates of 10 birds per pen (40 birds/treatment group and 4 pens of 10 birds/treatment group), and there were 2 control groups and 5 test groups. All the test groups and one of the control groups were exposed at day 20 of the trial to dirty litter, which tested positive for Campylobacter. This method was used to provide a more natural method to Campylobacter challenge the birds. Thus there was a positive control where one treatment group was challenged with Campylobacter and one negative control group where the birds were not challenged, and five treatment groups that were all challenged with Campylobacter. The total number of birds used in the 7 treatment groups was 280. Treatment group 1 was a negative control where birds just received the commercial feed, and were not challenged with dirty litter containing Campylobacter. Treatment group 2 was the positive control where the birds received the commercial feed, and were challenged with dirty litter containing Campylobacter at day 20. Treatment group 3 received 0.22 g/L of FeQ in their drinking water and 0.22 g/Kg FeQ in their feed during the entire trial, and was challenged with dirty litter containing Campylobacter at day 20. Treatment group 5 received 0.22 g/L of FeQ in their drinking water during the entire trial, and was challenged with dirty litter containing Campylobacter at day 20. Treatment group 6 received 0.22 g/kg FeQ in their feed during the entire trial, and was challenged with dirty litter containing Campylobacter at day 20. Treatment group 7 received 0.022 g/L FeQ in their drinking water during the entire trial, and was challenged with dirty litter containing Campylobacter at day 20. Treatment group 8 received 0.02 g/L FeTyr in their drinking water during the entire trial, and was challenged with dirty litter containing Campylobacter at day 20. The FeTyr was pre-dissolved in DMSO, and diluted to provide a solution of 0.02 g/L of FeTyr in water. (An additional treatment group 4 was terminated due to solubility issues.) […]
The feeding program is show in Table 4. […] All birds were weighed individually and feed weigh backs recorded per pen at day 0, 11, 21, 24 and 42 days.
In order to minimize risk of cross-contamination, standard industry biosecurity measures were used including: disinfecting boots, changing overshoes and gloves between pens/treatments, entering Campylobacter negative pens before entering Campylobacter positive pens, and leaving adjacent pens empty. Daily health, culls, and mortality were recorded. All bird weights were recorded at 0, 11, 21, 24, 33 and 42 days. […]

[2] = tested on: Uropathogenic E. coli UPEC-536; assay: Planktonic growth rate in RPMI-1640; assay type: cell-based, Escherichia coli; conditions: Fe-QA 100 μM, 24 hours
Method: The growth rate of Uropathogenic E. coli UPEC-536 in RPMI-1640 media over a period of 24 hours was compared to the growth rate of UPEC in RPMI-1640 media, but in the presence of 100 μM Fe-QA. The growth rate of Pseudomonas aeruginosa in RPMI-1640 media was also compared to the growth rate of Pseudomonas aeruginosa in RPMI-1640 media, but in the presence of 100 μM Fe-QA.

In the case of O=C1[O][Fe]23([O]C(=O)[C@]4(C[C@@H](O)[C@H](O)[C@H](O)C4)[O]2)([O]C(=O)[C@]2(C[C@@H](O)[C@H](O)[C@H](O)C2)[O]3)[O][C@@]12C[C@@H](O)[C@H](O)[C@H](O)C2 [FeQ, a complex of quinic acid with Fe III], the “ABW at day 42 versus positive control (challenged, untreated)” value [1] is reported as “performed better than the positive control”, the “MFCR at day 42 versus positive control (challenged, untreated)” value [1] is reported as “performed better than the positive control” and the planktonic growth rate [2] is reported as “does not inhibit the growth”.
